Data reported in US20240092800A1, “USP13 INHIBITORS AND METHODS OF USE THEREOF” (GEORGETOWN UNIVERSITY, priority 2021, published 2024).

Legend:
[1] = biological target: T1, human USP13 (Homo sapiens, UniProt Q92995); test: USP13 activity via ELISA in SHSY5Y cells; format: cell-based; settings: for IC50: SHSY5Y cell line, estimated with GraphPad Prism, read-out: IC50 to inhibit USP13 activity; for USP13 activity via ELISA: SHSY5Y cells, 5 hours, concentration range of 1 nM-1 mM
T1 construct: USP13 activity via ELISA in human SHSY5Y neuroblastoma cells; endogenous in cells; host or cells: human SH-SY5Y neuroblastoma cells (transiently transfected with human wild-type alpha-synuclein, not with USP13)
T1 sequence (Q92995 1-863): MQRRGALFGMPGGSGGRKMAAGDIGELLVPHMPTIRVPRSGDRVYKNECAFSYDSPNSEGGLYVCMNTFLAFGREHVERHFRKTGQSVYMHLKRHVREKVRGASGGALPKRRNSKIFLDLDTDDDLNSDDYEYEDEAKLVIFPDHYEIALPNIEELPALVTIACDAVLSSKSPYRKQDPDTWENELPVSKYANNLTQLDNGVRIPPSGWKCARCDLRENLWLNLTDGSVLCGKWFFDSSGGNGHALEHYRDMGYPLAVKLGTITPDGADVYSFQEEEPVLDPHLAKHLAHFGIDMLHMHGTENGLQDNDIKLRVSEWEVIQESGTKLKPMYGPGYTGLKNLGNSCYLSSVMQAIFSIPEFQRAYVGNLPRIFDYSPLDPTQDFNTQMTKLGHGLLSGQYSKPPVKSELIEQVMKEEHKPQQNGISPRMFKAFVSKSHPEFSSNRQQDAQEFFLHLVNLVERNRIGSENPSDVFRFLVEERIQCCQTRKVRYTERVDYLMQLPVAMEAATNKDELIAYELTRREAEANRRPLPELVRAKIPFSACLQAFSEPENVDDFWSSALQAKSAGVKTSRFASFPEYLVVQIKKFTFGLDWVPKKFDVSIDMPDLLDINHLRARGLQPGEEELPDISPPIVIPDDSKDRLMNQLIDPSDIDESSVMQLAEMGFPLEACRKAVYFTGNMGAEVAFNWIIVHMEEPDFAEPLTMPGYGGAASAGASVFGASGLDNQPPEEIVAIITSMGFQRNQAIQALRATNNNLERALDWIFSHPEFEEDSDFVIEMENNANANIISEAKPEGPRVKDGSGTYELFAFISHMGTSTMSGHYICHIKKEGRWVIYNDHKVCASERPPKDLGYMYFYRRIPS
Experimental: (§1) Cell lines, transfection, and treatment.
(§2) A total of 25 μL soluble protein was incubated overnight at 4° C. with 25 μL of a mixed bead solution. After washing, samples were incubated with 25 μL detection antibody solution for 1.5 hours at room temperature. Streptavidin-phycoerythrin (25 μL) was added to each well containing the 25 μL of detection antibody solution. Samples were then washed and suspended in 100 μL of sheath fluid. Samples were then run on MAGPIX with Xponent software. The median fluorescent intensity (MFI) data were analyzed using a 5-parameter logistic or spline curve-fitting method for calculating analyte concentrations in samples. Specific alpha-synuclein ELISAs were performed on tissue soluble extracts from midbrain lysates in 1XSTEN buffer. The ELISA for USP13 (MyBioSource, Cat # MBS9335287), Human alpha-synuclein (Biolegend, Cat #844101) and specific p-Tau ser396 (Invitrogen, KHB7031) were performed on cell or brain tissue extracts as described above according to manufacturers' protocol.
Statistical and Data Analysis. All statistical analyses were performed using GraphPad Prism version 5.0 (GraphPad software, Inc, San Diego, CA, USA). Two-tailed student's t-test was used in comparison of means of two groups. Ordinary one-way analysis of variance (ANOVA) followed by Newman-Keuls or Dunnett comparison post hoc tests were used in comparison of means of multiple groups. Asterisks denote actual p-value significances (*<0.05, **<0.01, ***<0.001 and ****<0.0001), and N is the number of animals or the number of independent experiments (cell culture) per group. Unless otherwise indicated, data are expressed as Mean±SD. IC50 to USP13 levels was also estimated using GraphPad Prism version 5.0 (GraphPad software, Inc, San Diego, CA, USA).

[2] = system: human alpha-synuclein; test: Alpha-synuclein levels via ELISA in alpha-synuclein-transfected SHSY5Y cells; format: cell-based; settings: 5 hours, concentration between 1 and 0.1 nM
Experimental: as §1
Alpha-Synuclein Enzyme-Linked Immunosorbent Assay (ELISA). ELISAs for total human alpha-synuclein (Millipore; Burlington, MA) were conducted using Milliplexed ELISA. Briefly, Xmap technology uses magnetic microspheres that are internally coded with two fluorescent dyes. Through precise combinations of these two dyes, multiple proteins are simultaneously measured within a sample. Each of these spheres is coated with a specific capture antibody. The capture antibody binds to the detection antibody and a reporter molecule, completing the reaction on the surface of the bead.
as §2

[3] = system: human SHSY5Y neuroblastoma cells; test: Cell viability by MTT and LDH assays; settings: 5 hours, up to 1 mM concentration
Experimental: Human SHSY-5Y neuroblastoma cells were cultured in Dulbecco's Modified Eagle's Medium (DMEM) (ThermoFisher Scientific; Waltham, MA) with 10% Fetal Bovine Serum (FBS) (ThermoFisher) and 1% Penicillin-Streptomycin (PenStrep, ThermoFisher) and incubated at 37° C. under atmospheric oxygen concentrations (21%) with 5% CO2. SHSY-5Y cells were cultured in DMEM with Ham's F12 (1:1) (ThermoFisher) with 20% FBS, 1% PenStrep. Cells were plated at a density tailored to reach 70-80% confluence at the beginning of every experiment. SH-SY5Y cells were transiently transfected for 24 hours with human wild-type α-synuclein using Fugene HD transfection reagent (Promega; Madison, WI) before fresh culture media and drug were added.
Cell viability was determined via lactate dehydrogenase assay on culture media, (ThermoFisher) and MTT assay on plated cells (ThermoFisher).

| SMILES | IC50 [1] | USP13 activity via ELISA [1] | level of alpha-synuclein via ELISA [2] | cell death in two viability assays (MTT and LDH) [3] |
| --- | --- | --- | --- | --- |
| c1ccc(Nc2ccnc3ccsc23)cc1 [BK50118-A, N-Phenylthieno[3,2-b]pyridin-7-amine] | 26 nM | significantly reduce the activity of human USP13 | significantly reduce the level of alpha-synuclein | do not cause cell death |
| Fc1ccc2nccc(Nc3ccccc3)c2c1 [BK50118-B, 6-Fluoro-N-phenylquinolin-4-amine] | 36.9 nM | significantly reduce the activity of human USP13 | significantly reduce the level of alpha-synuclein | do not cause cell death |
| Fc1ccc2nccc(NCc3ccccc3)c2c1 [CL3-499, N-Benzyl-6-fluoroquinolin-4-amine] | 1190 nM | significantly reduce the activity of human USP13 | significantly reduce the level of alpha-synuclein | do not cause cell death |
| COC(=O)[C@H](Cc1ccccc1)Nc1c([N+](=O)[O-])c(=O)oc2ccccc12 [CL3-512, (S)-Methyl (3-nitro-2-oxo-2H-chromen-4-yl)-phenylalaninate] | 1080 nM | significantly reduce the activity of human USP13 | significantly reduce the level of alpha-synuclein | do not cause cell death |
| COC(=O)[C@H](Cc1ccc(O)cc1)Nc1c([N+](=O)[O-])c(=O)oc2ccccc12 [CL3-514, (S)-Methyl (3-nitro-2-oxo-2H-chromen-4-yl)-tyrosinate] | 68.9 nM | significantly reduce the activity of human USP13 | significantly reduce the level of alpha-synuclein | do not cause cell death |
| Fc1ccc(CNc2ncnc3ccc(F)cc23)cc1 [Spautin-1, reference compound] | 600 to 700 nM |  |  |  |
